Reference: PMC5695812, “Novel chloroacetamido compound CWR-J02 is an anti-inflammatory glutaredoxin-1 inhibitor” (PLoS ONE, 2017)

Legend:
glutaredoxin-1 (Grx1) [1] = molecular target: T1, glutaredoxin-1 (Grx1) (Mus musculus, UniProt Q9QUH0); assay: Grx1 activity in lysates of treated BV2 murine microglia; click-biotin/streptavidin pull-down with MS and western blot; format: cell-based
T1 construct: gene Glrx
T1 sequence (Q9QUH0 2-107): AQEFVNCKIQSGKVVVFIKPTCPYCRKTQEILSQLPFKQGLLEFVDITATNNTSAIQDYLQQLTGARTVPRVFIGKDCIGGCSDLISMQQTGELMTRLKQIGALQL

glutaredoxin-1 (Grx1) [2] = molecular target: T2, glutaredoxin-1 (Grx1) (Homo sapiens, UniProt P35754); assay: isolated enzyme spectrophotometric assay ([…] min pre-incubation, […] GSH); Kitz-Wilson kinetics; tandem MS of the Cys-22 adduct; format: biochemical
T2 construct: gene GLRX
T2 sequence (P35754 2-106): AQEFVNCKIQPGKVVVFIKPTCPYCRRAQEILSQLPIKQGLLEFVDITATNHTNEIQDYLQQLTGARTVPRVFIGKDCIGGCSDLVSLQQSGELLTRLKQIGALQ

Cys22 = Cys22 (UniProt position 23, FIKPTCPYCRR); details: cited from earlier work

| Compound | IC50 (glutaredoxin-1 (Grx1) [1]) | IC50 (glutaredoxin-1 (Grx1) [2]) | pKa (Cys22) |
| --- | --- | --- | --- |
| C#CCOc1cc(C(=O)NCc2ccc(NC(=O)CCl)cc2)cc(C(=O)OC)c1 [J02, methyl 3-((4-(2-chloroacetamido)benzyl)carbamoyl)-5-(prop-2-yn-1-yloxy) benzoate] | 37 µM | 32 µM |  |
| Glutaredoxin-1 (Grx1, thioltransferase) (Homo sapiens (inferred; species of the isolated enzyme not stated explicitly)) |  |  | 3.5 |
